The text below walks through data of patent US20260199255A1, “LIPID COMPOUNDS AND METHODS OF MAKING AND USE THEREOF” (Ohio State Innovation Foundation, priority 2022, published 2026).

Format in all cases: cell-based
In one assay the test system is Hep3B cell line. Kind of assay: luciferase mRNA delivery in the Hep3B cell line (in vitro LNP screening). Particulars: LNPs of bile acid derived lipid, DOPE, cholesterol and DMG-PEG; mRNA-encoding firefly luciferase; Hep3B cell line (FIG. 2). The procedure: (§1) Lipid nanoparticles (LNPs) with synthesized bile acid derived lipids, DOPE, cholesterol and DMG-PEG were prepared and screened in various cell lines using mRNA-encoding firefly luciferase (FIGS. 2-4).

The next assay deals with JAWS2 cell line. Description: luciferase mRNA delivery in the JAWS2 cell line (in vitro LNP screening). Particulars: LNPs of bile acid derived lipid, DOPE, cholesterol and DMG-PEG; mRNA-encoding firefly luciferase; JAWS2 cell line (FIG. 3). As to the method: as §1
A further assay has as its system C2C12 cell line. Description: luciferase mRNA delivery in the C2C12 cell line (in vitro LNP screening). Particulars: LNPs of bile acid derived lipid, DOPE, cholesterol and DMG-PEG; mRNA-encoding firefly luciferase; C2C12 cell line (FIG. 4). As to the method:
as §1

As to `CCCCCCCCCCCCN(CCCCCCCCCCCC)CCCCCCNC(=O)CC[C@@H](C)[C@H]1CC[C@H]2[C@@H]3CC[C@@H]4C[C@H](O)CC[C@]4(C)[C@H]3C[C@H](O)[C@]12C` [BAL6], the mRNA delivery efficiency entry with Hep3B cell line is recorded as “more effective mRNA delivery efficiency than other LNPs”. For the compound `CCCCCCCCCCCCN(CCCCCCCCCCCC)CCN(CCCCCCCCCCCC)CCNC(=O)CC[C@@H](C)[C@H]1CC[C@H]2[C@@H]3CC[C@@H]4C[C@H](O)CC[C@]4(C)[C@H]3C[C@H](O)[C@]12C` [BAL7], the mRNA delivery efficiency result in the assay with JAWS2 cell line and in the assay with C2C12 cell line was “high mRNA delivery efficiency” throughout. With `CCCCCCCCCCCCN(CCCCCCCCCCCC)CCN(CCCCCCCCCCCC)CCNC(=O)CC[C@@H](C)[C@H]1CC[C@H]2[C@@H]3[C@H](O)C[C@@H]4C[C@H](O)CC[C@]4(C)[C@H]3CC[C@]12C` [BAL11], the mRNA delivery efficiency entry with JAWS2 cell line and in the assay on C2C12 cell line was “high mRNA delivery efficiency” each time.
